Laboratory results reported in patent US6413947B1, “Anilide derivative, production and use thereof” (Takeda Chemical Industries, Ltd., priority 1997, dated 2002).

Target: T1, human CCR5 (Homo sapiens, UniProt P51681)
T1 construct: expressed in transfected cells; host or cells: CHO-K1 cells, geneticin-resistant clone CHO/CCR5
Test: CCR5 antagonistic activity ([125I]-RANTES binding to CHO/CCR5 cells)
Settings: Test Compound 1 μM, 100 pM [125I]-RANTES, room temperature 30 minutes
Experimental: Cloning of CCR5 gene was carried out by PCR (polymerase chain reaction) from human spleen cDNA. With using 0.5 ng of spleen cDNA (Toyobo, QUICK-Clone cDNA) as template, PCR was performed in DNA Thermal Cycler 480 (Perkin-Elmer) (reaction conditions: 30 cycles of 95° C. for 1 minute, 60° C. for 1 minute, and 75° C. for 5 minutes) by adding primer set, 5′-CAGGATCCGATG […]-3′ (25 pmol) and 5′-TCTAGATCACAAGCC CACAGATATTTCCTGCTCC-3′ (25 pmol), which were designed referring to nucleotide sequence of CCR5 gene reported by Samson et al. (Biochemistry, 35(11), 3362-3367 (1996)) and by using TaKaRa EX Taq (Takara Shuzo). The resultant PCR product was subjected to agarose gel electrophoresis to collect about 1.0 kb DNA fragment, which was subjected to Original TA Cloning Kit (Funakoshi) to carry out cloning of CCR5 gene.
The plasmid obtained in the above (1) was digested with restriction enzymes XbaI (Takara Shuzo) and BamHI (Takara Shuzo) and subjected to agarose gel electrophoresis to collect about 1.0 kb DNA fragment. The DNA fragment was mixed with plasmid pcDNA3.1 (Funakoshi) for expression in animal cells, said plasmid being digested with XbaI and BamHI, and they were ligated with DNA Ligation Kit Ver.2 (Takara Shuzo). The resulting plasmid was subjected to transformation of competent cell of E. coli JM109 (Takara Shuzo) to obtain plasmid pCKR5.
CHO-K1 cells were grown in 750 ml of tissue culture flask (Becton Dickinson) using Ham's F12 medium (Nihon Pharmaceutical) containing 10% fetal calf serum (Life Tech Oriental) and took off with 0.5 g/L trypsin-0.2 g/L EDTA (Life Tech Oriental). The cells were washed with PBS (Life Tech Oriental), centrifuged (1000 rpm, 5 minutes), and suspended in PBS. With using Gene Pulser (Bio-Rad Laboratories), DNA was introduced into the cells under the conditions shown below. That is, to the cuvette of 0.4 cm gap were added 8×10^6 cells and 10 μg of plasmid pCKR5 for expression of human CCR5, and electroporation was carried out under 0.25 kV of voltage and 960 μF of capacitance. The cells were transferred into Ham's F12 medium (Nihon Pharmaceutical) containing 10% fetal calf serum, and cultivated for 24 hours. The cells were again took off and centrifuged, and suspended in Ham's F12 medium (Nihon Pharmaceutical) containing 10% fetal calf serum and 500 μg/ml of geneticin (Life Tech Oriental). The suspension was diluted to give 1 cells/ml of the suspension, which was inoculated on 96 well plate (Becton Dickinson) to give geneticin resistant cells. The resulting geneticin resistant cells were cultivated in 96 well plate (Becton Dickinson), and cells expressing CCR5 were selected from the geneticin resistant cells. That is, in assay buffer (Ham's F12 medium containing 0.5% BSA and 20 mM HEPES (Wako Pure Chemical, pH7.2) to which was added 200 pM of [^125I]-RANTES (Amersham) as ligand, binding reaction was carried out at room temperature for 40 minutes, and the buffer was washed with cooled PBS. To the buffer was added 50 μl/well of 1M NaOH, and the mixture was stirred. Radioactivity was determined with γ-counter to select CHO/CCR5 cells which specifically bind to the ligand.
The CHO/CCR5 were inoculated on 96 well microplate (5×10^4 cells/well) and cultivated for 24 hours. […] Radio-activity was determined with Top-Count Micro Scintillation Counter (Packard Instrument, Inc.). […]

T1 sequence (P51681 whole entry): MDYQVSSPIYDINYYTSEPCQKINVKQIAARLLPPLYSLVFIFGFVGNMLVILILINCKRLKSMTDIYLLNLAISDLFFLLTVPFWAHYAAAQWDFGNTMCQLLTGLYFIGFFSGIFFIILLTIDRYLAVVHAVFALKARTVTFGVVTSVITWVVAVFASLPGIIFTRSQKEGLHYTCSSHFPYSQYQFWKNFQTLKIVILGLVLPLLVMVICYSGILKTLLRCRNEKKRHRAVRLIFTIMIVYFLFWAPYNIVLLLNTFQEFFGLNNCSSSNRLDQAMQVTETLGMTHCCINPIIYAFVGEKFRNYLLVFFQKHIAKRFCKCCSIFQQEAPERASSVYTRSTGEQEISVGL

Inhibition Rate (%) to CCR5 binding [%] | Compound
99 | CC(C)(C)c1ccc(-c2ccc3c(c2)C=C(C(=O)Nc2ccc(CP4(=O)CCCCC4)cc2)CCO3)cc1 [Compound 180, N-(4—(pentamethylene)phosphorylmethylphenyl)-7—(4-tert-butylphenyl)-2,3-dihydro-1-benzoxepine-4-carboxamide]
100 | N-((7—(4-methylphenyl)-2,3-dihydro-1-benzoxepin-4-carbonyl)-2—(4-aminophenyl)ethyl)-N-methylpiperidinium iodide [Compound 100]

Compound | Inhibition Rate (%) to CCR5 binding [%]
Cc1ccc(-c2ccc(/C=C/C(=O)Nc3ccc(CP4(=O)CCCCC4)cc3)s2)cc1 [Compound 209, (E)-N-(4-pentamethylenephosphorylmethylphenyl)-3-[5—(4-methylphenyl)thiophen-2-yl]acrylic amide] | 80

Same assay, conditions: Test Compound 1 μM, 100 pM [125I]-RANTES, room temperature 30 minutes, read-out: Inhibition Rate (%) to CCR5 binding

inhibition at 1 µM [%] | Compound
96 | CCOc1ccc(-c2ccc3c(c2)C=C(C(=O)Nc2ccc(C[N+](C)(C)C4CCOCC4)cc2)CCO3)cc1 [Compound 250, N-(4-(((7-(4-ethoxyphenyl)-2,3-dihydro-1-benzoxepin-4-yl)carbonyl)amino)benzyl)-N,N-dimethyl-N-(4-tetrahydropyranyl)ammonium chloride]

Target: T2, human MCP-1 receptor (Homo sapiens, UniProt P41597)
T2 construct: expressed in transfected cells; host or cells: CHO cells, transformant CHO(MCR); FERM BP-5446; IFO 50461
Test: Determination of inhibitory activity on MCP-1 receptor (125I-MCP-1 binding to CHO cells expressing human MCP-1 receptor)
Settings: Test Compound 1 μM, 125I-human recombinant MCP-1 100 pM, room temperature 40 minutes
Experimental: According to a method described in Working Example 1 of JP-A-238688/1997, human MCP-1 receptor gene was prepared. Said gene was inserted to plasmid pMCR, which was introduced into CHO cell. The resultant transformant [CHO(MCR); FERM BP-5446; IFO 50461] was used for the following experiment.
On 96 well culture plate (Packard Instrument Company), 7×10^4 cell/well of CHO cells expressing human MCP-1 receptor were inoculated, and the cells were cultivated at 37° C., overnight. The medium was removed by means of suction. To the residue were added a buffer solution (D-MEM containing 0.5% BSA and 20 mM HEPES; pH7.4), Test Compound (1 μM) and ^125I-human recombinant MCP-1 (Amersham; final concentration: 100 pM), and the mixture was allowed to react at room temperature for 40 minutes. The buffer solution was removed by means of suction and washed twice with PBS. To the residue was added MICROSCINT-20 (Packard Instrument Company), radioactivity of ^125I (cpm) was determined with Topcount (Packard).
The count number (cpm) (non-specific binding) of ^125I which binds to CHO cells (mock) having a vector was taken from the count number (cpm) of ^125I which binds to CHO cells expressing human MCP-1 receptor to obtain the amended count number, which was converted into 100%, and inhibition rate of Test Compound (whose number is referred to in the following Examples) against MCP-1 binding to its receptor was calculated.

T2 sequence (P41597 whole entry): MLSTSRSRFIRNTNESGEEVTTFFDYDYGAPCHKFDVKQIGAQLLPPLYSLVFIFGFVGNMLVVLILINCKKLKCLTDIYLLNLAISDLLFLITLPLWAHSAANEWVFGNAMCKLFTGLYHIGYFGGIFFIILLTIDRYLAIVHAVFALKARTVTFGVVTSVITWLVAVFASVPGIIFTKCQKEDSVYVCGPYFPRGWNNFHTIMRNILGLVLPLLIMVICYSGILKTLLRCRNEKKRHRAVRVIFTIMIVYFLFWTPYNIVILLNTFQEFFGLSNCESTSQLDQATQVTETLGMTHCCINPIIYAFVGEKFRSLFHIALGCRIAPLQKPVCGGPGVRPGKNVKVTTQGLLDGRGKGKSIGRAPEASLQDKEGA

Compound | Inhibition Rate (%) against MCP-1 binding to its receptor [%]
Cc1ccc(-c2ccc3c(c2)C=C(C(=O)Nc2ccc(C[N+]4(C)CCCCC4)cc2)CCS3)cc1 [Compound 94, 1—(N-(7—(4-methylphenyl)-2,3-dihydro-1-benzo-thiepine-4-carbonyl)-4-aminobenzyl)-1-methyl-piperidinium iodide] | 92
Cc1ccc(-c2ccc3c(c2)C=C(C(=O)Nc2ccc(C[N+]4(C)CCCCC4)cc2)CCO3)cc1 [Compound 97, 1—(N-(7—(4-methylphenyl)-2,3-dihydro-1-benzoxepin-4-carbonyl)-4-aminobenzyl)-1-methylpiperidinium chloride] | 96
CCc1ccc(-c2ccc3c(c2)C=C(C(=O)Nc2ccc(CP4(=O)CCCCC4)cc2)CCO3)cc1 [Compound 178, N-(4—(pentamethylene)-phosphorylmethylphenyl)-7—(4-ethylphenyl)-2,3-dihydro-1-benzoxepine-4-carboxamide] | 64
Cc1ccc(-c2ccc3c(c2)C=C(C(=O)Nc2ccc(C[N+](C)(C)C4CCOCC4)cc2)CCC3)cc1 [Compound 220, N,N-dimethyl-N-(4—((2—(4-methylphenyl)-6,7-dihydro-5H-benzocyclohepten-8-yl)carbonyl)aminobenzyl)-N-(4-tetrahydropyranyl)ammonium iodide] | 98

Continued, values first:

Inhibition Rate (%) against MCP-1 binding to its receptor [%] | Compound
89 | Cc1ccc(-c2ccc3c(c2)C=C(C(=O)Nc2ccc(C[N+]4(C)CCCCC4)cc2)CC3)cc1 [Compound 16, 1-methyl-1-[4-[7—(4-methylphenyl)-3,4-dihydronaphthalene-2-carboxamido]benzyl]piperidinium iodide]
77 | Cc1ccc(-c2cccc(/C=C/C(=O)Nc3ccc(C[N+]4(C)CCCCC4)cc3)c2)cc1 [Compound 72, (E)-1-methyl-1-[4—(3—(4-methylphenyl)cinnamamido)benzyl]-piperidinium iodide]
80 | Cc1ccc(-c2ccc3c(c2)C=C(C(=O)Nc2ccc(CN(C)C4CCOCC4)cc2)CCO3)cc1 [Compound 128, N-(4—(N-methyl-(N-tetrahydropyran-4-yl)aminomethyl)phenyl)-7—(4-methylphenyl)-2,3-dihydro-1-benzoxepine-4-carboxamide]
80 | CN(Cc1ccc(NC(=O)C2=Cc3cc(-c4ccc(N5CCCCC5)cc4)ccc3OCC2)cc1)C1CCOCC1 [Compound 151]

Tested on: not given
Test: not given
Settings: not given

melting point [°C] | Compound
162 to 163 | Cc1ccc(-c2ccc3c(c2)C=C(C(=O)Nc2ccc(CN(C)C4CCOCC4)cc2)CCO3)cc1 [Compound 128, N-(4—(N-methyl-(N-tetrahydropyran-4-yl)aminomethyl)phenyl)-7—(4-methylphenyl)-2,3-dihydro-1-benzoxepine-4-carboxamide]
